# Laboratory results as given in paper PMC2748089, “Bactericidal activities of the cationic steroid CSA-13 and the cathelicidin peptide LL-37 against Helicobacter pylori in simulated gastric juice” (BMC Microbiology, 2009).
# Where two headings read alike, the source gives them in different places. Ends that are not written are not given here.
# Assays:
# H. pylori [1] = assay: MIC of conventional antibiotics against H. pylori on Muller-Hinton agar; type: cell-based, Helicobacter pylori; settings: for MIC: Helicobacter pylori; for Susceptibility classification by MIC: all H. pylori isolates, resistant when MIC above 4 μg/ml for AMX, 16 μg/ml for TET
# pepsin = pepsin (Sus scrofa, UniProt P00791); assay: LC-MS analytical characterization after incubation with pepsin at low pH; settings: 3 h incubation with pepsin 0.5 mg/ml at pH ~1.5, 37°C; LC-MS (C18, ESI positive); data from one experiment
# Protocol: The total ion chromatogram (TIC) is presented for each sample condition with an inset mass-to-charge (m/z) spectra showing intensity for the boxed TIC peaks. The molecular weight of intact LL-37 is 4494, which can be observed with multiple charges (m/z = 4 MW = 1124, m/z = 5 MW = 900, etc) in positive ion mode. The molecular weight of CSA13 is 678, which can be observed directly and with multiple charges. Data from one experiment are shown.
# Analytical characterization was performed on the CSA-13 and LL-37 suspensions after 3H incubation with pepsin (0.5 mg/ml) at low pH (~1,5) at 37°C, using the Shimadzu (Columbia, MD) instrument (the LC-MS system consisted of a LC-20AB solvent delivery system and SIL-20A auto-sampler coupled to dual wavelength UV-Vis detector and a LCMS 2010EV single quadrupole mass spectrometer), coupled to a Shimadzu Premier C18 column (150 mm × 4.6 mm i.d., 5 μm particle size). The mobile phase flow rate was 1 ml/min with a starting ratio of 90% mobile phase A (water) and 10% mobile phase B (acetonitrile) both with 0.1% (v/v) formic acid. The analytical method consisted of the following steps: (i) sample injection and holding at 10% B for 5 min, (ii) linear gradient from 10% to 90% B over 15 minutes, (iii) holding at 90% B for 5 minutes, (iv) isocratic step to 10% B and holding for 5 minutes prior to the next sample injection. […]
# human red blood cells = system: human red blood cells
# Protocol: (§1) Figure 5 Evaluation of cell toxicity. Hemoglobin and LDH release from human red blood cells and human gastric adenocarcinoma cells (panel A and B respectively) after addition of LL-37 (circles), WLBU2 (diamonds), and CSA-13 (triangles), followed by incubation for 1 h at 37°C. Data shown are means ± SD of three experiments. Morphology of human gastric adenocarcinoma cells before (control) and after LL-37, WLBU2 and CSA-13 treatment was evaluated by phase-contrast microscopy (panel C). Data from one representative experiment are shown.
# The hemolytic activity of LL-37, WLBU-2 and CSA-13 (0-200 μg/ml), against human red blood cells (RBC) was tested using erythrocytes suspended in PBS. RBC prepared from fresh blood (Hematocrit ~5%) were incubated for 1 h at 37°C after addition of test molecules. Relative hemoglobin concentration in supernatants after centrifugation at 2000 × g was monitored by measuring the absorbance at 540 nm. 100% hemolysis was taken from samples in which 2% Triton X-100 was added.
# drug-resistant bacteria = settings: previous susceptibility study; cited from earlier work
# [2] = system: Human gastric adenocarcinoma cells (ATCC; CRL-1739); assay: LDH release from gastric adenocarcinoma cells; type: cell-based; settings: bactericidal concentrations against H. pylori and E. coli MG1655 in saline and nutrient containing buffer
# From the text: Figure 5 Evaluation of cell toxicity. […] Data shown are means ± SD of three experiments. […] Data from one representative experiment are shown.
# H. pylori [3] = settings: for Change of MBC on addition of 2 mM MgCl2: HEPES buffer with 2 mM MgCl2 versus HEPES, data not shown
# [4] = system: Human gastric adenocarcinoma cells (ATCC; CRL-1739); settings: 10 μg/ml, 1 hour; phase-contrast microscopy
# Protocol: as §1
# Human gastric adenocarcinoma cells (ATCC; CRL-1739) were maintained in DMEM (BioWhittaker) culture supplemented with 10% heat-inactivated fetal bovine serum (Hyclone) at 37°C and 5% CO2. For LDH release assay and microscope evaluation cells were plated in 24 well plates and grown to confluence. In all experiments, the medium was changed to serum-free media ~12 h prior to cell treatment with LL-37, WLBU2 and CSA-13 (0-200 μg/ml) in individual wells, for 1 hour. Cell culture medium was then collected, centrifuged (10 mins, 5000 rpm, RT) and subjected to LDH evaluation (LDH-cytotoxicity Assay Kit; BioVision Inc.)
# Escherichia coli MG1655 = assay: Bacteria killing assay after pre-incubation in simulated gastric juice, or with mucin or bile; settings: E. coli MG1655, CFU count; for Antibacterial activity after pre-incubation at pH ~1.5 in the presence of pepsin: 3 h pre-incubation at 37°C in simulated gastric juice pH ~1.5 with pepsin 0.5 mg/ml; for Antibacterial activity after pre-incubation at pH ~1.5 in the presence of pepsin / Antibacterial activity after pre-incubation at pH ~1.5: versus PBS pH 7.4, pH adjusted to 7.4 before 1 h killing assay, means of three to four experiments; for Antibacterial activity after pre-incubation at pH ~1.5: 3 h pre-incubation at 37°C in simulated gastric juice pH ~1.5 without pepsin
# [5] = 96 h, H. pylori clinical strain 1, Muller-Hinton agar with 5% sheep blood, 4 days at 35°C, microaerophilic, read-out: MIC
# [6] = 96 h, H. pylori clinical strain 2, Muller-Hinton agar with 5% sheep blood, 4 days at 35°C, microaerophilic, read-out: MIC
# [7] = 96 h, H. pylori clinical strain 3, Muller-Hinton agar with 5% sheep blood, 4 days at 35°C, microaerophilic, read-out: MIC
# [8] = 96 h, H. pylori clinical strain 4, Muller-Hinton agar with 5% sheep blood, 4 days at 35°C, microaerophilic, read-out: MIC
# [9] = 96 h, H. pylori clinical strain 5, Muller-Hinton agar with 5% sheep blood, 4 days at 35°C, microaerophilic, read-out: MIC
# [10] = 96 h, H. pylori clinical strain 6, Muller-Hinton agar with 5% sheep blood, 4 days at 35°C, microaerophilic, read-out: MIC
# [11] = 96 h, H. pylori clinical strain 7, Muller-Hinton agar with 5% sheep blood, 4 days at 35°C, microaerophilic, read-out: MIC
# [12] = H. pylori clinical strains 5, 6, 7, resistant when MIC above 1 μg/ml for CLR, 16 μg/ml for Metronidazole
# [13] = HEPES buffer, 6 hours incubation at 37°C, inoculum 10^8 CFU/ml, all isolated strains of H. pylori
# pepsin, sequence (P00791 60-385): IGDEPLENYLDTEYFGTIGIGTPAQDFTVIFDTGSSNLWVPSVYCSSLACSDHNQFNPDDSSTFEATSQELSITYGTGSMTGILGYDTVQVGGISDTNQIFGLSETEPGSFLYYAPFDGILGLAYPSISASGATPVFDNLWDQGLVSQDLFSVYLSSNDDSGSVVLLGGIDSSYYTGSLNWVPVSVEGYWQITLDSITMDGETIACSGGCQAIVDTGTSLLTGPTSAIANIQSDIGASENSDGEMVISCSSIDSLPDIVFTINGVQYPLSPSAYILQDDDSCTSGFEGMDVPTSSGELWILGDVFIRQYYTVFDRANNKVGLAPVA
compound,measurement,setting,value
"CC1(C)S[C@@H]2[C@H](NC(=O)[C@H](N)c3ccc(O)cc3)C(=O)N2[C@H]1C(=O)O [AMX, Amoxicillin]",MIC,H. pylori [1]; [5],0.094 µg/mL
same,MIC,H. pylori [1]; [6],< 0.016 µg/mL
same,MIC,H. pylori [1]; [7],0.016 µg/mL
same,MIC,H. pylori [1]; [8],0.032 µg/mL
same,MIC,H. pylori [1]; [9],0.25 µg/mL
same,MIC,H. pylori [1]; [10],0.032 µg/mL
same,MIC,H. pylori [1]; [11],0.047 µg/mL
same,MIC,"H. pylori [1]; ATCC43504, 96 h, read-out: MIC",0.016 µg/mL
same,Susceptibility classification by MIC,H. pylori [1],susceptible
"CC[C@H]1OC(=O)[C@H](C)[C@@H](O[C@H]2C[C@@](C)(OC)[C@@H](O)[C@H](C)O2)[C@H](C)[C@@H](O[C@@H]2O[C@H](C)C[C@H](N(C)C)[C@H]2O)[C@](C)(OC)C[C@@H](C)C(=O)[C@H](C)[C@@H](O)[C@]1(C)O [CLR, clarithromycin]",Resistance classification by MIC,H. pylori [1]; [12],resistant
same,MIC,H. pylori [1]; 96 h,0.125 µg/mL
same,MIC,H. pylori [1]; [6],0.19 µg/mL
same,MIC,H. pylori [1]; [7],0.25 µg/mL
same,MIC,H. pylori [1]; [8],0.047 µg/mL
same,MIC,H. pylori [1]; [9],64 µg/mL
same,MIC,H. pylori [1]; [10],1.5 µg/mL
same,MIC,H. pylori [1]; [11],1.5 µg/mL
same,MIC,"H. pylori [1]; ATCC43504, 96 h, read-out: MIC",0.094 µg/mL
CCCCCCCCNCCC[C@@H](C)[C@H]1CC[C@H]2[C@@H]3[C@H](OCCCN)C[C@@H]4C[C@H](OCCCN)CC[C@]4(C)[C@H]3C[C@H](OCCCN)[C@]12C [CSA-13],Stability to pepsin at low pH (mass spectrometry analysis),pepsin,not changed
same,Bactericidal concentrations relative to minimal hemolytic concentration,human red blood cells; bactericidal concentrations against H. pylori and E. coli MG1655 in saline and nutrient containing buffer,below its minimal hemolytic concentration
same,MIC50/MBC50 ratio,drug-resistant bacteria,1
same,Bactericidal concentrations relative to concentrations causing dysfunction of adenocarcinoma cell membranes,[2],below concentrations causing dysfunction of adenocarcinoma cell membranes
same,average MBC,H. pylori [3],2.98 ± 3.11 µg/mL
same,MBC after pre-incubation with buffer at low pH containing pepsin or mucin,"H. pylori [3]; H. pylori ATCC 43504, 1 h pre-incubation at 37°C in simulated gastric juice pH ~1.5 with pepsin or mucin",nearly unchanged
same,Change of MBC on addition of 2 mM MgCl2,H. pylori [3]; H. pylori ATCC 43504,four fold increase
same,average MBC,H. pylori [3]; [13],0.31 ± 0.25 µg/mL
same,"MBC (minimum bactericidal concentration), range over strains","H. pylori [3]; nutrient-containing media, clinical isolates of H. pylori",0.275 to 8.9 µg/mL
same,Adenocarcinoma cell morphology versus control cells,[4],no visible difference
same,Antibacterial activity after pre-incubation at pH ~1.5 in the presence of pepsin,Escherichia coli MG1655,unchanged
same,Antibacterial activity after pre-incubation at pH ~1.5,Escherichia coli MG1655,unchanged
same,Bactericidal activity in the presence of purified gastric mucin,"Escherichia coli MG1655; mucin 1000 μg/ml, 1 h killing assay at 37°C",less inhibited by mucin
CC[C@H](C)[C@H](NC(=O)[C@H](CCCCN)NC(=O)[C@H](CCC(=O)O)NC(=O)[C@H](CCCCN)NC(=O)[C@H](CO)NC(=O)[C@H](CCCCN)NC(=O)[C@H](CCCNC(=N)N)NC(=O)[C@H](Cc1ccccc1)NC(=O)[C@H](Cc1ccccc1)NC(=O)[C@H](CC(=O)O)NC(=O)CNC(=O)[C@H](CC(C)C)NC(=O)[C@@H](N)CC(C)C)C(=O)NCC(=O)N[C@@H](CCCCN)C(=O)N[C@@H](CCC(=O)O)C(=O)N[C@@H](Cc1ccccc1)C(=O)N[C@@H](CCCCN)C(=O)N[C@@H](CCCNC(=N)N)C(=O)N[C@H](C(=O)N[C@H](C(=O)N[C@@H](CCC(N)=O)C(=O)N[C@@H](CCCNC(=N)N)C(=O)N[C@H](C(=O)N[C@@H](CCCCN)C(=O)N[C@@H](CC(=O)O)C(=O)N[C@@H](Cc1ccccc1)C(=O)N[C@@H](CC(C)C)C(=O)N[C@@H](CCCNC(=N)N)C(=O)N[C@@H](CC(N)=O)C(=O)N[C@@H](CC(C)C)C(=O)N[C@H](C(=O)N1CCC[C@H]1C(=O)N[C@@H](CCCNC(=N)N)C(=O)N[C@H](C(=O)N[C@@H](CCC(=O)O)C(=O)N[C@@H](CO)C(=O)O)[C@@H](C)O)C(C)C)[C@@H](C)CC)C(C)C)[C@@H](C)CC [LL-37],Stability to pepsin at low pH (mass spectrometry analysis),pepsin,extensive degradation
same,average MBC,H. pylori [3]; 6 h,300 ± 232 µg/mL
same,average MBC,H. pylori [3]; [13],8.9 ± 4.03 µg/mL
same,Adenocarcinoma cell morphology versus control cells,[4],no visible difference
same,Antibacterial activity after pre-incubation at pH ~1.5 in the presence of pepsin,Escherichia coli MG1655,lost
"Cc1ncc([N+](=O)[O-])n1CCO [Metronidazole, metronidazole]",Resistance classification by MIC,"H. pylori [1]; H. pylori clinical strain 4, resistant when MIC above 16 μg/ml for Metronidazole",resistant
same,Resistance classification by MIC,H. pylori [1]; [12],resistant
same,MIC,H. pylori [1]; [5],0.19 µg/mL
same,MIC,H. pylori [1]; [6],0.094 µg/mL
same,MIC,H. pylori [1]; [7],0.5 µg/mL
same,MIC,H. pylori [1]; [8],32 µg/mL
same,MIC,H. pylori [1]; [9],96 µg/mL
same,MIC,H. pylori [1]; [10],32 µg/mL
same,MIC,H. pylori [1]; [11],48 µg/mL
same,MIC,"H. pylori [1]; ATCC43504, 96 h, read-out: MIC",64 µg/mL
"CN(C)[C@@H]1C(O)=C(C(N)=O)C(=O)[C@@]2(O)C(O)=C3C(=O)c4c(O)cccc4[C@@](C)(O)[C@H]3C[C@@H]12 [TET, tetracycline]",Susceptibility classification by MIC,H. pylori [1],susceptible
RRWVRRVRRWVRRVVRVVRRWVRR [WLBU2],Hemoglobin release from human red blood cells,"human red blood cells; RBC in PBS, hematocrit ~5%, 0-200 μg/ml, 1 h at 37°C, absorbance at 540 nm, 100% = 2% Triton X-100, means of three experiments",strongest hemolytic agent
same,Change of MBC on addition of 2 mM MgCl2,H. pylori [3]; H. pylori ATCC 43504,four fold increase
same,Adenocarcinoma cell morphology versus control cells,[4],no visible difference
same,Antibacterial activity after pre-incubation at pH ~1.5,Escherichia coli MG1655,not significantly changed
